From patent US4136196A, “Hypoglycaemically active 2-(phenylalkyl- or -alkenyl hydrazono)-propionic acid derivatives” (Boehringer Mannheim GmbH, priority 1976, dated 1979)

tested on: blood glucose; assay: Blood sugar tests: hypoglycaemic activity in fasting guinea pigs, i.p.; type: in vivo, guinea pig; details: Cavia porcellus, ip, read-out: Threshold i.p. Dosage for Hypoglycaemic Activity in Testing Guinea Pigs
Method: In order to illustrate the pharmacological properties of the compounds according to the invention, the blood sugarlowering effect and the monoaminoxidase (MAO) inhibition were determined and compared with some corresponding hydrazines. […] Metabolically healthy, cross-bred, fasting guinea pigs were injected with the substances as aqueous solutions of their sodium salts, i.p. A control group receives equivalent amounts of an isotonic NaCl solution. Directly before, as well as in hourly intervals up to the fourth hour after the […], 10 μl blood are taken from an ear border vein and the blood glucose is determined by means of the trouble-free and specific hexokinase technique.

Molecule | minimal effective dose
NNCCc1ccccc1 [Phenelzine, 2-phenylethyl-hydrazine, reference compound] | ≥ 50 mg/kg
CC(=NNCCCc1ccccc1)C(=O)[O-].[Na+] [Sodium 2-(3-phenylpropylhydrazono)-propionate] | 35 mg/kg
CC(=NNCC=Cc1ccccc1)C(=O)[O-].[Na+] [Sodium-2-(cinnamylhydrazono)-propionate, sodium 2-(cinnamylhydrazono)-propionate] | 15 mg/kg
COc1ccccc1CCNN=C(C)C(=O)[O-].[Na+] [sodium 2-(2-methoxyphenethylhydrazono)-propionate] | 25 mg/kg
CC(=NNCCc1cccc(Br)c1)C(=O)[O-].[Na+] [sodium 2-(3-bromophenethylhydrazono)-propionate] | 25 to 50 mg/kg

same assay, conditions: Cavia porcellus, ip; fasting guinea pigs, i.p., aqueous solutions of sodium salts; dosage which significantly lowers blood glucose versus control, up to fourth hour; read-out: Threshold i.p. Dosage for Hypoglycaemic Activity in Testing Guinea Pigs

Molecule | minimal effective dose
CC(=NNCCc1ccccc1C)C(=O)O [2-(2-methylphenethylhydrazono)-propionic acid] | 50 mg/kg
CC(=NNCCc1ccc(Cl)cc1)C(=O)O [2-(4-chlorophenethylhydrazono)-propionic acid] | 25 mg/kg
CC(=NNCCc1ccc(F)cc1)C(=O)O [2-(4-fluorophenethylhydrazono)-propionic acid] | 25 mg/kg
COc1ccc(CCNN=C(C)C(=O)O)cc1 [2-(4-methoxyphenethylhydrazono)-propionic acid] | 50 mg/kg
CC(=NNCCc1ccccc1)C(N)=O [2-(phenethylhydrazono)-propionamide] | 50 mg/kg
CC(=NNCCc1ccccc1)C(=O)O [2-(phenethylhydrazono)-propionic acid, 2-(Phenethylhydrazono)-propionic acid] | 15 mg/kg
CC(=NNCCc1ccc(C)cc1)C(=O)O [2-[2-(p-tolyl)-ethylhydrazono]-propionic acid] | 50 mg/kg
CCOC(=O)C(C)=NNCCc1ccccc1 [Ethyl 2-(phenethylhydrazono)-propionate] | 25 mg/kg
COC(=O)C(C)=NNCCc1ccccc1 [Methyl 2-(phenethylhydrazono)-propionate] | 50 mg/kg

same assay, conditions: fasting guinea pigs, i.p., aqueous solutions of sodium salts; dosage which significantly lowers blood glucose versus control, up to fourth hour

Molecule | Threshold i.p. Dosage for Hypoglycaemic Activity in Testing Guinea Pigs
3-phenyl-propen-2-yl--hydrazin-hydrochloride [reference compound] | > 50 mg/kg
sodium 2-(β-methylcinnamylhydrazono)-propionate | 10 mg/kg

tested on: MAO; assay: Measuring of the MAO activity in vitro (kynuramine substrate, unrefined guinea pig liver or brain preparation); type: biochemical; details: 360 mμ, read-out: Concentration for 50% MAO Inhibitions
Method: In order to illustrate the pharmacological properties of the compounds according to the invention, the blood sugarlowering effect and the monoaminoxidase (MAO) inhibition were determined and compared with some corresponding hydrazines.
An unrefined MAO preparation is obtained by comminution of guinea pig liver or brain with the Ultraturrax and subsequent centrifuging at about 10,000 g. The liquid contains the MAO portion dissolved in the cytoplasm and is used for the activity measurements. As substrate there is used kynuramine whose oxidative decomposition by the MAO can be directly observed at 360 m μ in the photometer. The extinction decrease per time unit is a measure of the enzyme activity.

Molecule | IC50
CC(=NNCCc1ccccc1)C(=O)O [2-(phenethylhydrazono)-propionic acid, 2-(Phenethylhydrazono)-propionic acid] | 600 µM
NNCCc1ccccc1 [Phenelzine, 2-phenylethyl-hydrazine, reference compound] | 0.4 µM

tested on: not given; assay: not given; details: in high dosages; literature; cited from earlier work

Molecule | hypoglycaemic activity
NNCCc1ccccc1 [Phenelzine, 2-phenylethyl-hydrazine, reference compound] | can be hypoglycaemically active in high dosages
CC(NN)c1ccccc1 (centres unmarked) [mebanazine, 1-phenylethyl-hydrazine] | can be hypoglycaemically active in high dosages
